Values after ≈ are worked out from the molar mass of the structure shown. Read-outs that look alike come from different tables or passages of the source.
Key:
[1] = solubility of (+), (−) and racemic forms of tenatoprazole in water; assay type: physicochemical; settings: for solubility in water relative to the racemic form: versus racemic form
[2] = versus other proton pump inhibitors such as omeprazole or lansoprazole; cited from earlier work
clinical = settings: human, plasma
[3] = chiral pharmacokinetic study, plasma analysis after chiral separation in genotyped subjects
Procedure: In parallel, a chiral pharmacokinetic study was conducted to assess the preponderance of the pharmacokinetic characteristics of the (−) isomer in the pharmacokinetics of racemic tenatoprazole.
These subjects have a very weak metabolic activity concerning CYP2C19, which is responsible for the metabolism of tenatoprazole. […] These subjects are qualified as slow metabolisers.

Row | solubility [1] | half-life (clinical; 20 mg) | half-life (clinical; 80 mg) | Solubility (water) ([1]; listed as (−) form) | solubility in water relative to the racemic form [1] | plasma concentration of the isomer compared with the other isomer ([3]; rapid metabolisers, CYP2C19*1/*1 genotype) | Solubility (water) [1] | plasma level of the isomer compared with the other isomer ([3]; slow metabolisers, CYP2C19*2/*2 genotype, plasma after chiral separation) | Compound | plasma half-life relative to other proton pump inhibitors [2]
1 | 34.6 µg/mL (≈ 99.9 µM) | ~7 h | ~9 h | – | – | – | – | – | COc1ccc2[nH]c([S+]([O-])Cc3ncc(C)c(OC)c3C)nc2n1 (racemic) [(±)racemic form, (+)-5-methoxy-2-{[(4-methoxy-3,5-dimethyl-2-pyridyl)methyl]sulfinyl}imidazo-[4,5-b]pyridine] | about seven
2 | – | – | – | 74.4 µg/mL (≈ 215 µM) | over 2 times | higher concentration | – | – | COc1ccc2[nH]c([S+]([O-])Cc3ncc(C)c(OC)c3C)nc2n1 (single isomer, unassigned; (-)) [(−) enantiomer] | –
3 | – | – | – | – | ~3 times | – | 93.0 µg/mL (≈ 268 µM) | highly significant increase | COc1ccc2[nH]c([S+]([O-])Cc3ncc(C)c(OC)c3C)nc2n1 (single isomer, unassigned; (+)) [(+) form] | –
